Results taken from patent publication US20130217735A1, “FUNGICIDAL COMPOSITIONS AND METHODS OF USE” (Agri-Food and BioSciences Institute, priority 2010, published 2013).
Like-named read-outs stand apart in the source and are kept apart here.

Assays:
[1] = tested on: F. coeruleum; test: Example 7 sensitivity testing of potato tuber pathogens to thiabendazole derivatives; assay type: cell-based; conditions: Trial B; for inhibition at 25 µM / inhibition at 250 µM: read-out: Inhibition (%) of mycelial growth
Procedure: (§1) In vitro tests of the IL thiabendazolium docusate were performed in comparison to the neutral fungicide using selected isolates of Fusarium spp., the cause of potato dry rot. F. coeruleum and F. culmorum are sensitive to thiabendazole whereas isolates of F. sambucinum are frequently resistant. Isolates of Phoma spp., the cause of gangrene, and Phytophthora erythroseptica, the cause of pink rot, were also tested. All except F. sambucinum ex SASA were isolated in a laboratory. F. sambucinum ex SASA was supplied by SASA (Science and Advice for Scottish Agriculture, Roddinglaw Road, Edinburgh, EH12 9F, UK).
(§2) In each test three replicate plates for each organism per concentration were used and tests were repeated at least once.

[2] = tested on: F. culmorum; test: as above; assay type: cell-based; conditions: isolate F. culmorum P13, Trial B
Procedure: as §1, §2

[3] = tested on: F. sambucinum; test: as above; assay type: cell-based; conditions: Trial B; for inhibition at 25 µM / inhibition at 250 µM: Fusarium sambucinum, read-out: Inhibition (%) of mycelial growth
Procedure: as §1, §2

[4] = tested on: Phoma exigua; test: as above; assay type: cell-based; conditions: isolate Phoma exigua 9.1, Trial B
Procedure: as §1, §2

[5] = tested on: Phoma foveata; test: as above; assay type: cell-based; conditions: isolate Phoma foveata BL2 05 T3, Trial B
Procedure: as §1, §2

[6] = tested on: Phytophthora erythroseptica; test: as above; assay type: cell-based; conditions: for Inhibition (%) of mycelial growth / inhibition at 25 µM / inhibition at 250 µM: Trial B; for inhibition at 25 µM / inhibition at 250 µM: Phytophthora erythroseptica, read-out: Inhibition (%) of mycelial growth
Procedure: as §1, §2

[7] = tested on: F. culmorum; test: Example 5 agar plate mycelial growth test of TBZ derivatives; assay type: cell-based; conditions: isolate F. culmorum P13, Trial A
[8] = tested on: F. sulphureum; test: as above; conditions: 5-7 days, TBZ docusate Trial A; for Inhibition (%) of mycelial growth: isolate F. sulphureum ex SASA
Procedure: (§3) Both TBZ docusate and TBZ stearate were tested at final concentrations of 250 μm and 25 μm in agar. To prepare the TBZ docusate stock solution for 250 μm, 0.155 g of TBZ docusate prepared according to Trial A was added to a 10 mL volumetric flask and was dissolved in 10 mL of ethanol. The solution was mixed thoroughly. To prepare the TBZ docusate stock solution for 25 μm, 1 ml of the above stock solution was pipetted into a second 10 mL flask and 10 mL ethanol was added. The solution was mixed thoroughly. To prepare the TBZ stearate stock solution for 250 μm, 0.121 g of TBZ stearate was added to a 10 mL volumetric flask and was dissolved in 10 mL ethanol. The solution was mixed thoroughly. To prepare the TBZ stearate stock solution for 25 μm, 1 mL of the 250 μm TBZ stearate stock solution was pipetted into a second 10 mL flask and 10 mL ethanol was added. The solution was mixed thoroughly.
(§4) The agar was prepared and autoclaved. Potato dextrose agar (PDA) was used for the Fusarium species and Phytophthora erythroseptica and malt agar was used for the Phoma species. The agar was allowed to cool to 50° C. Each of the stock solutions was added to the agar at the rate of 10 mL stock solution per liter of agar to give the two final concentrations, for both TBZ stearate and docusate, in agar. Also prepared were a 1% ethanol control (10 mL per liter of agar) and an untreated agar as a second control. The plates were prepared in triplicate for each concentration.
(§5) For each pathogen isolate tested, 3 plates of 250 μm/1, 3 plates of 25 μm/1, 3 plates of 1% ethanol, and 3 plates of untreated agar were inoculated using an agar plug cut with a no. 3 cork borer from the margin of an actively-growing culture on agar. The plates were incubated at an appropriate temperature (usually 18-20° C.) in darkness. The growth rate was monitored and assessed after 5-7 days. The growth was assessed by measuring colony diameters minus plug (two measurements at right-angles) per plate. The percent reduction was calculated with respect to the control.
(§6) Pure thiabendazole (TBZ; 0.5 g) obtained from MSD Agvet (Rahway, N.J.) was dissolved in water (10 mL) by adding the minimum required volume (c. 0.5 mL) of hypophosphorous acid and heating gently with stirring, then made up to 100 mL with water to give a stock solution (25 mM). TBZ docusate (0.155 g) or TBZ stearate (0.121 g) was dissolved in ethanol (100 ml) to give stock solutions (25 mM). A ten-fold dilution of each of these stock solutions was prepared (in water for TBZ and in ethanol for TBZ docusate and stearate). […] In addition, agar with 1% v/v ethanol and unamended agar was prepared (ethanol and unamended controls). The agar was poured into Petri plates (9 cm) and allowed to set.
(§7) Isolates of the appropriate potato tuber pathogens were grown on PDA for Fusarium spp. and Phytophthora erythroseptica or on MA for Phoma spp. Each isolate to be tested was inoculated onto three replicate plates of the two concentrations of each compound and onto ethanol and unamended agar controls using plugs (6 mm diameter) cut from the margins of actively growing cultures. Plates were incubated in darkness at 20° C. and mycelial growth measured (two measurements at right-angles for each plate) after 5-7 days (depending on the growth rates).

[9] = tested on: F. coeruleum; test: as above; conditions: Trial A; for Inhibition (%) of mycelial growth: isolate F. coeruleum ex B7/06 T8
Procedure: as §3, §4, §5, §6, §7

[10] = tested on: P. foveata; test: as above; conditions: Trial A; for Inhibition (%) of mycelial growth: isolate P. foveata BL2 05 T3
Procedure: as §3, §4, §5, §6, §7

[11] = tested on: P. exigua; test: as above; conditions: Trial A; for Inhibition (%) of mycelial growth: isolate P. exigua 9.1
Procedure: as §3, §4, §5, §6, §7

[12] = tested on: P. erythroseptica; test: as above; conditions: Trial A; for Inhibition (%) of mycelial growth: isolate P. erythroseptica BL2/08 P31
Procedure: as §3, §4, §5, §6, §7

[13] = isolate F. coeruleum ex B7/06 T8, 25 μM in agar
[14] = isolate F. coeruleum ex B7/06 T8, 250 μM in agar
[15] = isolate F. coeruleum ex B16/08 P31, 25 μM in agar
[16] = isolate F. coeruleum ex B16/08 P31, 250 μM in agar
[17] = isolate F. sambucinum L'gall 11, 25 μM in agar
[18] = isolate F. sambucinum L'gall 11, 250 μM in agar
[19] = isolate F. sambucinum L'gall 53, 25 μM in agar
[20] = isolate F. sambucinum L'gall 53, 250 μM in agar
[21] = isolate F. sambucinum ex SASA, 25 μM in agar
[22] = isolate F. sambucinum ex SASA, 250 μM in agar, vs 1% ethanol control
[23] = isolate Phytophthora erythroseptica BL2/08 P31, 25 μM in agar
[24] = isolate Phytophthora erythroseptica BL2/08 P31, 250 μM in agar
[25] = isolate Phytophthora erythroseptica Rooster Eire, 25 μM in agar
[26] = isolate Phytophthora erythroseptica Rooster Eire, 250 μM in agar

CCCCCCCCCCCCCCCCCC(=O)O.c1ccc2[nH]c(-c3cscn3)nc2c1 [TBZ stearate, thiabendazolium stearate]
Inhibition (%) of mycelial growth [1, 13]: 99% | Inhibition (%) of mycelial growth [1, 14]: 99% | Inhibition (%) of mycelial growth [1, 15]: 100% | Inhibition (%) of mycelial growth [1, 16]: 100% | Inhibition (%) of mycelial growth ([2]; 25 μM in agar): 100% | Inhibition (%) of mycelial growth ([2]; 250 μM in agar): 100% | Inhibition (%) of mycelial growth [3, 17]: 10% | Inhibition (%) of mycelial growth [3, 18]: 82% | Inhibition (%) of mycelial growth [3, 19]: 20% | Inhibition (%) of mycelial growth [3, 20]: 82% | Inhibition (%) of mycelial growth [3, 21]: 24% | Inhibition (%) of mycelial growth [3, 22]: 89% | Inhibition (%) of mycelial growth ([4]; 25 μM in agar): 95% | Inhibition (%) of mycelial growth ([4]; 250 μM in agar): 99% | Inhibition (%) of mycelial growth ([5]; 25 μM in agar): 97% | Inhibition (%) of mycelial growth ([5]; 250 μM in agar): 99% | activity against P. erythroseptica compared with thiabendazole alone ([6]; in words, Table 5): did not enhance the activity | Inhibition (%) of mycelial growth [6, 23]: 10% | Inhibition (%) of mycelial growth [6, 24]: 54% | Inhibition (%) of mycelial growth [6, 25]: 11% | Inhibition (%) of mycelial growth [6, 26]: 34%

c1ccc2[nH]c(-c3cscn3)nc2c1 [TBZ stearate, thiabendazolium stearate]
Inhibition (%) of mycelial growth ([7]; 25 μM in agar): 100% | Inhibition (%) of mycelial growth ([7]; 250 μM in agar): 100% | Inhibition (%) of mycelial growth ([8]; 25 μM in agar): 25% | Inhibition (%) of mycelial growth ([8]; 250 μM in agar): 90% | Inhibition (%) of mycelial growth ([9]; 25 μM in agar): 98% | Inhibition (%) of mycelial growth ([9]; 250 μM in agar): 98% | Inhibition (%) of mycelial growth ([10]; 25 μM in agar): 96% | Inhibition (%) of mycelial growth ([10]; 250 μM in agar): 99% | Inhibition (%) of mycelial growth ([11]; 25 μM in agar): 93% | Inhibition (%) of mycelial growth ([11]; 250 μM in agar): 98% | Inhibition (%) of mycelial growth ([12]; 25 μM in agar): 2% | Inhibition (%) of mycelial growth ([12]; 250 μM in agar): 69%

c1ccc2[nH]c(-c3cscn3)nc2c1 [TBZ, thiabendazole, reference compound]
inhibition at 25 µM ([7]; Fusarium culmorum, 25 μM in agar): 100% | inhibition at 250 µM ([7]; Fusarium culmorum, 250 μM in agar): 100% | inhibition at 25 µM [1, 13]: 99% | inhibition at 250 µM [1, 14]: 99% | inhibition at 25 µM [1, 15]: 100% | inhibition at 250 µM [1, 16]: 100% | inhibition at 25 µM ([2]; Fusarium culmorum, 25 μM in agar, read-out: Inhibition (%) of mycelial growth): 100% | inhibition at 250 µM ([2]; Fusarium culmorum, 250 μM in agar, read-out: Inhibition (%) of mycelial growth): 100% | inhibition at 25 µM [3, 17]: 8% | inhibition at 250 µM [3, 18]: 76% | inhibition at 25 µM [3, 19]: 19% | inhibition at 250 µM [3, 20]: 93% | inhibition at 25 µM [3, 21]: 22% | inhibition at 250 µM [3, 22]: 89% | inhibition at 25 µM ([4]; 25 μM in agar, read-out: Inhibition (%) of mycelial growth): 95% | inhibition at 250 µM ([4]; 250 μM in agar, read-out: Inhibition (%) of mycelial growth): 100% | inhibition at 25 µM ([5]; Boeremia foveata, 25 μM in agar, read-out: Inhibition (%) of mycelial growth): 98% | inhibition at 250 µM ([5]; Boeremia foveata, 250 μM in agar, read-out: Inhibition (%) of mycelial growth): 100% | inhibition at 25 µM [6, 23]: 4% | inhibition at 250 µM [6, 24]: 51% | inhibition at 25 µM [6, 25]: 8% | inhibition at 250 µM [6, 26]: 31% | inhibition at 25 µM ([8]; read-out: Inhibition (%) of mycelial growth, isolate F. sulphureum ex SASA, 25 μM in agar): 17% | inhibition at 250 µM ([8]; read-out: Inhibition (%) of mycelial growth, isolate F. sulphureum ex SASA, 250 μM in agar): 87% | inhibition at 25 µM ([9]; read-out: Inhibition (%) of mycelial growth, isolate F. coeruleum ex B7/06 T8, 25 μM in agar): 99% | inhibition at 250 µM ([9]; read-out: Inhibition (%) of mycelial growth, isolate F. coeruleum ex B7/06 T8, 250 μM in agar): 98% | inhibition at 25 µM ([10]; Boeremia foveata, read-out: Inhibition (%) of mycelial growth, isolate P. foveata BL2 05 T3, 25 μM in agar): 98% | inhibition at 250 µM ([10]; Boeremia foveata, read-out: Inhibition (%) of mycelial growth, isolate P. foveata BL2 05 T3, 250 μM in agar): 100% | inhibition at 25 µM ([11]; Boeremia inoxydabilis, read-out: Inhibition (%) of mycelial growth, isolate P. exigua 9.1, 25 μM in agar): 92% | inhibition at 250 µM ([11]; Boeremia inoxydabilis, read-out: Inhibition (%) of mycelial growth, isolate P. exigua 9.1, 250 μM in agar): 100% | inhibition at 250 µM ([12]; Phytophthora erythroseptica, read-out: Inhibition (%) of mycelial growth, isolate P. erythroseptica BL2/08 P31, 250 μM in agar): 76% | Inhibition (%) of mycelial growth ([12]; 25 μM in agar): 9%

thiabendazolium docusate [TBZ docusate]
Inhibition (%) of mycelial growth ([7]; 25 μM in agar): 100% | Inhibition (%) of mycelial growth ([7]; 250 μM in agar): 100% | Inhibition (%) of mycelial growth [1, 13]: 99% | Inhibition (%) of mycelial growth [1, 14]: 99% | Inhibition (%) of mycelial growth [1, 15]: 100% | Inhibition (%) of mycelial growth [1, 16]: 100% | Inhibition (%) of mycelial growth ([2]; 25 μM in agar): 100% | Inhibition (%) of mycelial growth ([2]; 250 μM in agar): 100% | Inhibition (%) of mycelial growth [3, 17]: 19% | Inhibition (%) of mycelial growth [3, 18]: 83% | Inhibition (%) of mycelial growth [3, 19]: 11% | Inhibition (%) of mycelial growth [3, 20]: 68% | Inhibition (%) of mycelial growth [3, 21]: 19% | Inhibition (%) of mycelial growth [3, 22]: 96% | Inhibition (%) of mycelial growth ([4]; 25 μM in agar): 94% | Inhibition (%) of mycelial growth ([4]; 250 μM in agar): 99% | Inhibition (%) of mycelial growth ([5]; 25 μM in agar): 95% | Inhibition (%) of mycelial growth ([5]; 250 μM in agar): 99% | Inhibition (%) of mycelial growth [6, 23]: 33% | Inhibition (%) of mycelial growth [6, 24]: 97% | Inhibition (%) of mycelial growth [6, 25]: 11% | Inhibition (%) of mycelial growth [6, 26]: 91% | Inhibition (%) of mycelial growth ([8]; 25 μM in agar): 27% | Inhibition (%) of mycelial growth ([8]; 250 μM in agar): 97% | Inhibition (%) of mycelial growth ([9]; 25 μM in agar): 98% | Inhibition (%) of mycelial growth ([9]; 250 μM in agar): 98% | Inhibition (%) of mycelial growth ([10]; 25 μM in agar): 95% | Inhibition (%) of mycelial growth ([10]; 250 μM in agar): 99% | Inhibition (%) of mycelial growth ([11]; 25 μM in agar): 90% | Inhibition (%) of mycelial growth ([11]; 250 μM in agar): 98% | Inhibition (%) of mycelial growth ([12]; 25 μM in agar): 62% | Inhibition (%) of mycelial growth ([12]; 250 μM in agar): 100%
